According to PMC4171606, “A novel copper(I) complex induces ER-stress-mediated apoptosis and sensitizes B-acute lymphoblastic leukemia cells to chemotherapeutic agents” (Oncotarget, 2014):

Columns and labels:
Type in all cases: cell-based, human
[1] = test system: GRP78, CHOP, PARP, caspase-3; experiment: Western blot on blast cells from B-ALL patients; details: CP 2.5 μM, 12 h
Method: (§1) FIGURE 6 CP effects on B-ALL primary cultures (A) Blast cells from six B-ALL patients were incubated for 24 h with different concentrations of CP. For the sake of comparison CD19^+ cells from peripheral blood of healthy donors, and PBMC were also incubated with CP in the presence or absence of PHA. Cell viability were assayed by MTT analysis. Data are represented as mean ± S.E.M of four independent experiments. (B) Bone marrow cells from healthy donors were treated for 24 h with CP (2.5 μM and 5 μM). Cell viability was evaluated on the whole population by flow cytometry after staining the cells with Annexin-V-FITC and PI. are represented as mean ± S.E.M of 3 independent experiments. (C) Western Blot analysis of GRP78 and CHOP expression, PARP cleavage and caspase-3 activation, on protein extracts of blast cells from B-ALL patients treated with CP (2.5 μM) for 12 h.
Cells were treated with CP and, after different times, were collected, centrifuged and washed with ice cold phosphate-buffered saline (PBS). The pellet was then resuspended in lysis buffer as described. The protein concentration in the supernatant was determined using the BCA protein assay (Pierce, Italy). Equal amounts of protein (10 μg) were resolved using SDS-PAGE gel electrophoresis (Criterion precast Tris-HCl gel, BioRad, Italy) and transferred to PVDF Hybond-p membranes (GE Healthcare, Italy). […]

[2] = test system: SEM and RS4;11 cells; experiment: Annexin-V-FITC/PI flow cytometry (apoptosis); details: CP 2.5 μM, both cell lines
Method: FIGURE 1 CP uptake and effects on cell cycle and apoptosis induction A) RS4;11, SEM, THP1, Jurkat cell lines and healthy PBMC were incubated with 6.25, 12.5 and 25 μM of CP for 24 h. The intracellular accumulation of CP was detected by GF-AAS analysis. B) SEM and RS4;11 cells were treated with the indicated concentrations of CP for 24 h, cell cycle distribution and Sub-G1 contents were analyzed by flow cytometry after cell staining with PI. The percentages of each phase of the cell cycle (G1, S, G2/M) were calculated on living cells whereas the percentages of cells with hypodiploid DNA content peak (subG1) was referred to cell population characterized by the appearance of subG1 peak. C) SEM and RS4;11 cells were incubated with 2.5 μM CP for the indicated times and analyzed by flow cytometry after double staining with Annexin-V-FITC and PI. Data are represented as mean ± S.E.M. of three independent experiments.
To characterize the mode of cell death induced by CP, we performed a cytofluorimetric analysis using PI and Annexin-V-FITC, which stain DNA and phosphatidylserine residues, respectively. After a time course of 1.5, 3, 6, 12 and 24 h of drug treatment (2.5 μM), SEM and RS4;11 cells were labeled with the two dyes and analyzed by flow cytometry. […]

[3] = test system: RS4;11 and SEM cells; experiment: Mitochondrial transmembrane potential, JC-1; details: CP 2.5 μM
Method: To determine whether the apoptotic stimuli involved mitochondria alteration, we examined the mitochondrial transmembrane potential (ΔΨmt) by means of the fluorescence dye JC-1.
FIGURE 2 CP induces caspase-dependent apoptosis without mitochondria involvement (A) Assessment of mitochondrial membrane potential (ΔΨmt) after treatment of RS4;11 and SEM cells with CP (2.5 μM) for the indicated times. Cells were stained with the fluorescent probe JC-1. Data are represented as mean ± S.E.M. of three independent experiments. (B) Flow cytometric analysis of RS4;11 and SEM cells treated with CP (2.5 μM) for 24 h showing cytochrome c labeled with a monoclonal antibody conjugated to FITC. Representative image of three experiments with similar results. (C) Cells were incubated with CP 2.5 μM and 5 μM in the presence or absence of the pan-caspase inhibitor z-VAD.fmk (100 μM). Cell viability was determined after 48 h by MTT assay. […]
The mitochondrial membrane potential was measured with the lipophilic cation 5,5',6,6'-tetrachlo-1,1',3,3'-tetraethylbenzimidazolyl-carbocyanine (JC-1) (Life Technologies, Italy) as previously described. Cytochrome c release was analyzed by flow cytometry using a commercial kit (Innocyte flow cytometric cytochrome c release kit, Calbiochem, Italy) following the manufacturer's instructions.

[4] = test system: Bone marrow cells from healthy donors; experiment: Annexin-V-FITC/PI viability by flow cytometry, 24 h; details: CP 2.5 μM and 5 μM
Method: CP growth inhibitory activity was measured on primary cultures derived from pediatric patients affected by B-acute lymphoblastic leukemia. […] In particular, in resting and in PHA-stimulated PBMC, and in CD19^+ cells GI50 was higher than 10 μM confirming that CP preferentially affects leukemia cells.
as §1, with “(C) Western Blot analysis of GRP78 and CHOP expression, PARP cleavage and caspase-3 activation, on protein extracts of blast cells from B-ALL patients treated with CP (2.5 μM) for 12 h.” left out
Surface exposure of PS by apoptotic cells was measured by flow cytometry with a Coulter Cytomics FC500 (Beckmann Coulter, USA) by adding Annexin V-FITC and propidium iodide (PI) to cells according to the manufacturer's instructions (Annexin-V Fluos, Roche Diagnostic, Italy).

Structure (SMILES): F[P-](F)(F)(F)(F)F.OCP(CO)CO.OCP(CO)CO.OCP(CO)CO.OCP(CO)CO.[Cu+] [CP, [Cu(thp)4][PF6]]
- caspase-3 activation and PARP cleavage ([1]; patient cells): induced caspase-3 activation and PARP cleavage
- GRP-78 and CHOP expression ([1]; primary cultures): significant increase in the expression of both these markers
- onset of significant levels of Annexin-V positive cells [2]: ≥ 6 h
- percentage of cells with low ΔΨmt [3]: slightly increased, only after 12 h
- viability of lymphocyte and monocyte populations [4]: did not affect the viability
